Assay [1] addresses WRN (BV08), human Werner helicase (Uniprot Q14191, amino acids 517-1235 with L1074F point mutation) (Homo sapiens (Human), UniProt Q14191, L1074F). The assay can be described thus: WRN (BV08) ADP-Glo assay. The class given is biochemical. Particulars: class symbols A-E, read-out: ADP-Glo_hWRN_IC50. (In general: ADP-Glo turns the ADP formed in a reaction into a luminescent signal.)

Assay [2] concerns p21 induction in HCT116 cells. Nature of the assay: p21 induction in HCT116 cells. The conditions noted are these: Homo sapiens, HCT-116, 24 h, HCT116 cells, 24 h compound incubation; read-out: P21_EC50. The class given is cell-based. In outline: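 EC50 from non-linear curve fit of p21 immunofluorescence (800 nm), with GAPDH (700 nm) read alongside. DMSO and a reference WRN inhibitor served as low and high controls. Cells (2,000/well) got 11 compound concentrations in duplicate for 24 h at 37 °C.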

The source of these data is patent US20250034136A1 (Nimbus Wadjet, Inc., priority 2023, published 2025).

The structures appear in SMILES notation.

Sequence of WRN (BV08), human Werner helicase (Uniprot Q14191, amino acids 517-1235 with L1074F point mutation) (Q14191 other isoform, or with tags, fused parts or gaps L1074F (already in the parent)): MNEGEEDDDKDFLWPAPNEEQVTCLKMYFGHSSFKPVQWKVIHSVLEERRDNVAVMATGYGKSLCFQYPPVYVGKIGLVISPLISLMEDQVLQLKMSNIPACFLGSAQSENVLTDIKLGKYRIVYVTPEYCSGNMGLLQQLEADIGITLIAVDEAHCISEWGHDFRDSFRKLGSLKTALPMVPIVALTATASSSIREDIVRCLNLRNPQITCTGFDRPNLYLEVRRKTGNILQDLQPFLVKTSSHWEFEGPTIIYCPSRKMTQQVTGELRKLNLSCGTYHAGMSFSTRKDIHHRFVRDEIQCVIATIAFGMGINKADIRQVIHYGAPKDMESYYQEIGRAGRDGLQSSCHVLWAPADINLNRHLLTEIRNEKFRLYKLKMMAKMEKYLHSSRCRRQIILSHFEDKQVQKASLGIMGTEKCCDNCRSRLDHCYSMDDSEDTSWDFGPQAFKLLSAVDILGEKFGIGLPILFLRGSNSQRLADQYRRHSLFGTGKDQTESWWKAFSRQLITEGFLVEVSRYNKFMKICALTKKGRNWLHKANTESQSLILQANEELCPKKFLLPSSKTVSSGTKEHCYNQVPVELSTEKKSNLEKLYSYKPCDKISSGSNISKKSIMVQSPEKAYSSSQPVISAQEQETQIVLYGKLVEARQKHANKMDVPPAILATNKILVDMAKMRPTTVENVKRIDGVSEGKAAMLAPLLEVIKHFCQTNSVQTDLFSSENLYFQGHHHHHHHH

With `CCc1c(N2CCN(C(=O)c3ncnc(C)c3O)CC2)c(=O)c2nc(/C=C/C(C)(C)O)cnc2n1CC(=O)Nc1ccc(C(F)(F)F)cc1Cl` [I-138, N-[2-chloro-4-(trifluoromethyl)phenyl]-2-{6-ethyl-2-[(1E)-3-hydroxy-3-methylbut-1-en-1-yl]-7-[4-(5-hydroxy-6-methylpyrimidine-4-carbonyl)piperazin-1-yl]-8-oxo-5H,8H-pyrido[2,3-b]pyrazin-5-yl}acetamide], the IC50 in assay [1] lay in the range of 5 to 50 nM. Besides, the EC50 in assay [2] is above 5000 nM.
For `CCc1c(N2CCN(C(=O)c3ncnc(C)c3O)CC2)c(=O)c2nc(OC3COC3)cnc2n1CC(=O)Nc1ccc(C(F)(F)F)cc1Cl` [I-140, N-[2-chloro-4-(trifluoromethyl)phenyl]-2-{6-ethyl-7-[4-(5-hydroxy-6-methylpyrimidine-4-carbonyl)piperazin-1-yl]-2-(oxetan-3-yloxy)-8-oxo-5H,8H-pyrido[2,3-b]pyrazin-5-yl}acetamide], in assay [1], the IC50 was above 500 nM. In assay [2], the EC50 was above 5000 nM.
For the compound `CCc1c(N2CCN(C(=O)c3ncnc(C)c3O)CC2)c(=O)c2nc(OC3CCC3)cnc2n1CC(=O)Nc1ccc(C(F)(F)F)cc1Cl` [I-141, N-[2-chloro-4-(trifluoromethyl)phenyl]-2-{2-cyclobutoxy-6-ethyl-7-[4-(5-hydroxy-6-methylpyrimidine-4-carbonyl)piperazin-1-yl]-8-oxo-5H,8H-pyrido[2,3-b]pyrazin-5-yl}acetamide], in assay [1], the IC50 fell in the range of 5 to 50 nM. Further, the EC50 in assay [2] was above 5000 nM.
The corresponding values for `CCc1c(N2CCN(C(=O)c3ncnc(C)c3O)CC2)c(=O)c2nc(/C=C3\CCC3C)cnc2n1CC(=O)Nc1ccc(C(F)(F)F)cc1Cl` (centres unmarked) [I-142, N-[2-chloro-4-(trifluoromethyl)phenyl]-2-{6-ethyl-7-[4-(5-hydroxy-6-methylpyrimidine-4-carbonyl)piperazin-1-yl]-2-[(2-methylcyclobutylidene)methyl]-8-oxo-5H,8H-pyrido[2,3-b]pyrazin-5-yl}acetamide] are at most 5 nM and 500 to 2000 nM.
On to `CCc1c(N2CCN(C(=O)c3ncnc(C)c3O)CC2)c(=O)c2nc(/C=C/C3CCC3)cnc2n1CC(=O)Nc1ccc(C(F)(F)F)cc1Cl` [I-144, N-[2-chloro-4-(trifluoromethyl)phenyl]-2-{2-[(1E)-2-cyclobutylethenyl]-6-ethyl-7-[4-(5-hydroxy-6-methylpyrimidine-4-carbonyl)piperazin-1-yl]-8-oxo-5H,8H-pyrido[2,3-b]pyrazin-5-yl}acetamide], for which the IC50 in assay [1] is at most 5 nM. The EC50 in assay [2] fell in the range of 500 to 2000 nM.
As to `CCc1c(N2CCN(C(=O)c3c(C#N)cnc(C)c3O)CC2)c(=O)c2ncc(C)nc2n1CC(=O)Nc1ccc(C(F)(F)F)cc1Cl` [I-145, N-[2-chloro-4-(trifluoromethyl)phenyl]-2-{7-[4-(5-cyano-3-hydroxy-2-methylpyridine-4-carbonyl)piperazin-1-yl]-6-ethyl-3-methyl-8-oxo-5H,8H-pyrido[2,3-b]pyrazin-5-yl}acetamide], the IC50 in assay [1] is 5 to 50 nM. Also, the EC50 in assay [2] was above 5000 nM.
For `CCc1c(N2CCCN(C(=O)c3ncnc(C)c3O)CC2)c(=O)c2nc(N(C)C)cnc2n1CC(=O)Nc1ccc(C(F)(F)F)cc1Cl` [I-147, N-[2-chloro-4-(trifluoromethyl)phenyl]-2-[2-(dimethylamino)-6-ethyl-7-[4-(5-hydroxy-6-methylpyrimidine-4-carbonyl)-1,4-diazepan-1-yl]-8-oxo-5H,8H-pyrido[2,3-b]pyrazin-5-yl]acetamide], the IC50 in assay [1] was in the range of 5 to 50 nM. Moreover, in assay [2], the EC50 is above 5000 nM.
Take `CCc1c(N2CCN(C(=O)c3ncnc(C)c3O)CC2)c(=O)c2nc(N(C)C)cnc2n1CC(=O)Nc1c(F)cc(C(F)(F)F)cc1F` [I-148, N-[2,6-difluoro-4-(trifluoromethyl)phenyl]-2-[2-(dimethylamino)-6-ethyl-7-[4-(5-hydroxy-6-methylpyrimidine-4-carbonyl)piperazin-1-yl]-8-oxo-5H,8H-pyrido[2,3-b]pyrazin-5-yl]acetamide]: in assay [1], the IC50 is 5 to 50 nM. Also, the EC50 in assay [2] is above 5000 nM.
For `CCc1c(N2CCN(C(=O)c3ncnc(C)c3O)CC2)c(=O)c2nc(N3CCC[C@@H]3C)cnc2n1CC(=O)Nc1ccc(C(F)(F)F)cc1Cl` [I-149, N-[2-chloro-4-(trifluoromethyl)phenyl]-2-{6-ethyl-7-[4-(5-hydroxy-6-methylpyrimidine-4-carbonyl)piperazin-1-yl]-2-[(2S)-2-methylpyrrolidin-1-yl]-8-oxo-5H,8H-pyrido[2,3-b]pyrazin-5-yl}acetamide], the IC50 in assay [1] lay within 5 to 50 nM. In addition, in assay [2], the EC50 fell in the range of 500 to 2000 nM.
On to `CCc1c(N2CCN(C(=O)c3ncnc(C)c3O)CC2)c(=O)c2nc(N3CCC[C@H]3C)cnc2n1CC(=O)Nc1ccc(C(F)(F)F)cc1Cl` [I-150, N-[2-chloro-4-(trifluoromethyl)phenyl]-2-{6-ethyl-7-[4-(5-hydroxy-6-methylpyrimidine-4-carbonyl)piperazin-1-yl]-2-[(2R)-2-methylpyrrolidin-1-yl]-8-oxo-5H,8H-pyrido[2,3-b]pyrazin-5-yl}acetamide], for which the IC50 in assay [1] is 5 to 50 nM. The EC50 in assay [2] was 500 to 2000 nM.
The like results for `CCc1c(N2CCN(C(=O)c3ncnc(C)c3O)CC2)c(=O)c2nc(N3CCC4(CCC4)C3)cnc2n1CC(=O)Nc1ccc(C(F)(F)F)cc1Cl` [I-151, 2-(2-{6-azaspiro[3.4]octan-6-yl}-6-ethyl-7-[4-(5-hydroxy-6-methylpyrimidine-4-carbonyl)piperazin-1-yl]-8-oxo-5H,8H-pyrido[2,3-b]pyrazin-5-yl)-N-[2-chloro-4-(trifluoromethyl)phenyl]acetamide] were, in that order, 5 to 50 nM and 2000 to 5000 nM.
With `CCc1c(N2CCN(C(=O)c3ncnc(C)c3O)CC2)c(=O)c2nc(N3CCCC3C(C)(C)O)cnc2n1CC(=O)Nc1ccc(C(F)(F)F)cc1Cl` (centres unmarked) [I-152, N-[2-chloro-4-(trifluoromethyl)phenyl]-2-{6-ethyl-7-[4-(5-hydroxy-6-methylpyrimidine-4-carbonyl)piperazin-1-yl]-2-[2-(2-hydroxypropan-2-yl)pyrrolidin-1-yl]-8-oxo-5H,8H-pyrido[2,3-b]pyrazin-5-yl}acetamide], the IC50 in assay [1] was in the range of 5 to 50 nM. In assay [2], the EC50 is above 5000 nM.
In the case of `CCc1c(N2CCN(C(=O)c3ncnc(C)c3O)CC2)c(=O)c2nc(N3CCC[C@H]3C(C)(C)O)cnc2n1CC(=O)Nc1ccc(C(F)(F)F)cc1Cl` [I-153, N-[2-chloro-4-(trifluoromethyl)phenyl]-2-{6-ethyl-7-[4-(5-hydroxy-6-methylpyrimidine-4-carbonyl)piperazin-1-yl]-2-[(2S)-2-(2-hydroxypropan-2-yl)pyrrolidin-1-yl]-8-oxo-5H,8H-pyrido[2,3-b]pyrazin-5-yl}acetamide], the IC50 in assay [1] was 5 to 50 nM. For the same compound, the EC50 in assay [2] lay in the range of 2000 to 5000 nM.
In the case of `CCc1c(N2CCN(C(=O)c3ncnc(C)c3O)CC2)c(=O)c2nc(N(C)CCN(C)C)cnc2n1CC(=O)Nc1ccc(C(F)(F)F)cc1Cl` [I-154, N-[2-chloro-4-(trifluoromethyl)phenyl]-2-(2-{[2-(dimethylamino)ethyl](methyl)amino}-6-ethyl-7-[4-(5-hydroxy-6-methylpyrimidine-4-carbonyl)piperazin-1-yl]-8-oxo-5H,8H-pyrido[2,3-b]pyrazin-5-yl)acetamide], the IC50 in assay [1] was above 500 nM. Also, the EC50 in assay [2] is above 5000 nM.
The like results for `CCc1c(N2CCN(C(=O)c3ncnc(C)c3O)CC2)c(=O)c2nc(N3C[C@@H]4[C@H](C3)[C@H]4N(C)C)cnc2n1CC(=O)Nc1ccc(C(F)(F)F)cc1Cl` [I-155, N-[2-chloro-4-(trifluoromethyl)phenyl]-2-{2-[(1R,5S,6S)-6-(dimethylamino)-3-azabicyclo[3.1.0]hexan-3-yl]-6-ethyl-7-[4-(5-hydroxy-6-methylpyrimidine-4-carbonyl)piperazin-1-yl]-8-oxo-5H,8H-pyrido[2,3-b]pyrazin-5-yl}acetamide] were, in that order, 50 to 100 nM and above 5000 nM.
In the case of `CCc1c(N2CCN(C(=O)c3ncnc(C)c3O)CC2)c(=O)c2nc(N3CC4CC4C3)cnc2n1CC(=O)Nc1ccc(C(F)(F)F)cc1Cl` (centres unmarked) [I-156, 2-(2-{3-azabicyclo[3.1.0]hexan-3-yl}-6-ethyl-7-[4-(5-hydroxy-6-methylpyrimidine-4-carbonyl)piperazin-1-yl]-8-oxo-5H,8H-pyrido[2,3-b]pyrazin-5-yl)-N-[2-chloro-4-(trifluoromethyl)phenyl]acetamide], the IC50 in assay [1] lay within 5 to 50 nM. The EC50 in assay [2] is 500 to 2000 nM.
`C=C(F)c1cnc2c(n1)c(=O)c(N1CCN(C(=O)c3ncnc(C)c3O)CC1)c(CC)n2CC(=O)Nc1ccc(C(F)(F)F)cc1Cl` [I-157, N-[2-chloro-4-(trifluoromethyl)phenyl]-2-[6-ethyl-2-(1-fluoroethenyl)-7-[4-(5-hydroxy-6-methylpyrimidine-4-carbonyl)piperazin-1-yl]-8-oxo-5H,8H-pyrido[2,3-b]pyrazin-5-yl]acetamide]: in assay [1], the IC50 was in the range of 5 to 50 nM. Further, the EC50 in assay [2] lay within 500 to 2000 nM.
As for `CCc1c(N2CCN(C(=O)c3c(C#N)cnc(C)c3O)CC2)c(=O)c2nc(C)cnc2n1CC(=O)Nc1ccc(C(F)(F)F)cc1Cl` [I-158, N-[2-chloro-4-(trifluoromethyl)phenyl]-2-{7-[4-(5-cyano-3-hydroxy-2-methylpyridine-4-carbonyl)piperazin-1-yl]-6-ethyl-2-methyl-8-oxo-5H,8H-pyrido[2,3-b]pyrazin-5-yl}acetamide], the IC50 in assay [1] is 5 to 50 nM. Further, in assay [2], the EC50 is above 5000 nM.
With `CCc1c(N2CCN(C(=O)c3ncnc(C)c3O)CC2)c(=O)c2nc(C3=CCN(C(=O)OC)C3)cnc2n1CC(=O)Nc1ccc(C(F)(F)F)cc1Cl` [I-159, methyl 3-[5-({[2-chloro-4-(trifluoromethyl)phenyl]carbamoyl}methyl)-6-ethyl-7-[4-(5-hydroxy-6-methylpyrimidine-4-carbonyl)piperazin-1-yl]-8-oxo-5H,8H-pyrido[2,3-b]pyrazin-2-yl]-2,5-dihydro-1H-pyrrole-1-carboxylate], the IC50 in assay [1] was 5 to 50 nM. Moreover, the EC50 in assay [2] was above 5000 nM.
